Data from patent publication US20220127247A1, “N-(PYRIDIN-2-YL)PYRIDINE-SULFONAMIDE DERIVATIVES AND THEIR USE IN THE TREATMENT OF DISEASE” (NOVARTIS AG, priority 2019, published 2022).

Target: T1, delF508-CFTR (Homo sapiens, UniProt P13569, DEL508-508)
T1 construct: expressed in transfected cells
Experiment: Measurement of delF508-CFTR-HRP surface expression in CFBE41o- cells
Assay type: cell-based
Conditions: for EC50: HRP-tagged delF508-CFTR in CFBE41o- cells, 24 h with compound, luminescence, 10-point curve, top 10 μM; for Emax: efficacy relative to reference compound 3-(6-(1-(2,2-difluorobenzo[d][1,3]dioxol-5-yl)cyclopropane-1-carboxamido)-3-methylpyridin-2-yl)benzoic acid, CFBE41o- cells, 24 h, read-out: DelF508-CFTR-HRP Amax %
From the text: Measurement of delF508-CFTR-HRP Surface Expression in CFBE41o-Cells
This assay quantifies the cell surface expressions of the mutant CFTR channel using an extracellular HRP tag.
A cellular assay was developed to measure surface expression of horseradish peroxidase (HRP) tagged delF508-CFTR in the human bronchial epithelial immortalized CFBE41o-cell line (Phuan, P. W., et al, (2014) Molecular Pharmacology 86:42-51). Specifically, the HRP sequence was inserted into the fourth extracellular loop of delF508-CFTR and stably expressed in CFBE41o-cells. Cells were seeded in 384 well plate at a density of 5000 cells/well and incubated at 37° C. for 12 to 24 hours in medium (Gibco MEM #11095, 10% FBS, 10 mM HEPES, […], 200 μg/mL G418, 3 μg/mL Puromycin). The delF508-CFTR-HRP expression was induced with 500 ng/mL doxycycline (Sigma D-9891, dissolved in H2O and sterile filtered) in medium and the cells were incubated at 37° C. for 48 h. Old medium was removed and fresh medium was added containing 500 ng/mL doxycycline and unknown test compound at required test concentration in DMSO, not exceeding 0.5% final DMSO concentration. The highest concentration tested was 10 μM with a 10-point concentration response curve using a 3-fold dilution. After addition of compounds, the cells were incubated for 24 h at 37° C. On the final day, cells were washed four times in PBS containing 1 mM MgCl2 and 0.1 mM CaCl2. HRP-Substrate (SuperSignal ELISA Pico, Fisher #37069) 20 μl/well was added and the luminescence signal was determined (Viewlux, Perkin Elmer). Light was emitted upon addition of exogenous HRP-Substrate only when delF508-CFTR-HRP reached the cell surface and the HRP tag was accessible to the HRP-Substrate (note: HRP-Substrate cannot cross the lipid bilayer to reach delF508-CFTR-HRP misfolded within the cell).
The median activity for the lowest concentration of the compounds on each assay plate was calculated and this value was used to normalize the signal for each well on the respective plate. Three replicates at each concentrations for every compound were run to determine one EC50. The median value was determined and used to calculate compound activities as described below. Effective half maximal values (EC50) were calculated for each compound by performing logistic regression on measured dose-response data points using the equation: […]
where “Y” is the observed activity, “Bottom” is the lowest observed value, “Top” is the highest observed value, and the “Hill coefficient” gives the largest absolute value of the slope. The curve fitting is carried out by a curve fitting program implemented at GNF using Matlab (Mathworks).
The dose response curves also were used to calculate Fold Change (FC) using the equation: […]
Compound efficacy relative to the reference compound 3-(6-(1-(2,2-difluorobenzo[d][1,3]dioxol-5-yl)cyclopropane-1-carboxamido)-3-methylpyridin-2-yl)benzoic acid was determined using the following formula: […]

T1 sequence (P13569 with tags, fused parts or gaps DEL508-508): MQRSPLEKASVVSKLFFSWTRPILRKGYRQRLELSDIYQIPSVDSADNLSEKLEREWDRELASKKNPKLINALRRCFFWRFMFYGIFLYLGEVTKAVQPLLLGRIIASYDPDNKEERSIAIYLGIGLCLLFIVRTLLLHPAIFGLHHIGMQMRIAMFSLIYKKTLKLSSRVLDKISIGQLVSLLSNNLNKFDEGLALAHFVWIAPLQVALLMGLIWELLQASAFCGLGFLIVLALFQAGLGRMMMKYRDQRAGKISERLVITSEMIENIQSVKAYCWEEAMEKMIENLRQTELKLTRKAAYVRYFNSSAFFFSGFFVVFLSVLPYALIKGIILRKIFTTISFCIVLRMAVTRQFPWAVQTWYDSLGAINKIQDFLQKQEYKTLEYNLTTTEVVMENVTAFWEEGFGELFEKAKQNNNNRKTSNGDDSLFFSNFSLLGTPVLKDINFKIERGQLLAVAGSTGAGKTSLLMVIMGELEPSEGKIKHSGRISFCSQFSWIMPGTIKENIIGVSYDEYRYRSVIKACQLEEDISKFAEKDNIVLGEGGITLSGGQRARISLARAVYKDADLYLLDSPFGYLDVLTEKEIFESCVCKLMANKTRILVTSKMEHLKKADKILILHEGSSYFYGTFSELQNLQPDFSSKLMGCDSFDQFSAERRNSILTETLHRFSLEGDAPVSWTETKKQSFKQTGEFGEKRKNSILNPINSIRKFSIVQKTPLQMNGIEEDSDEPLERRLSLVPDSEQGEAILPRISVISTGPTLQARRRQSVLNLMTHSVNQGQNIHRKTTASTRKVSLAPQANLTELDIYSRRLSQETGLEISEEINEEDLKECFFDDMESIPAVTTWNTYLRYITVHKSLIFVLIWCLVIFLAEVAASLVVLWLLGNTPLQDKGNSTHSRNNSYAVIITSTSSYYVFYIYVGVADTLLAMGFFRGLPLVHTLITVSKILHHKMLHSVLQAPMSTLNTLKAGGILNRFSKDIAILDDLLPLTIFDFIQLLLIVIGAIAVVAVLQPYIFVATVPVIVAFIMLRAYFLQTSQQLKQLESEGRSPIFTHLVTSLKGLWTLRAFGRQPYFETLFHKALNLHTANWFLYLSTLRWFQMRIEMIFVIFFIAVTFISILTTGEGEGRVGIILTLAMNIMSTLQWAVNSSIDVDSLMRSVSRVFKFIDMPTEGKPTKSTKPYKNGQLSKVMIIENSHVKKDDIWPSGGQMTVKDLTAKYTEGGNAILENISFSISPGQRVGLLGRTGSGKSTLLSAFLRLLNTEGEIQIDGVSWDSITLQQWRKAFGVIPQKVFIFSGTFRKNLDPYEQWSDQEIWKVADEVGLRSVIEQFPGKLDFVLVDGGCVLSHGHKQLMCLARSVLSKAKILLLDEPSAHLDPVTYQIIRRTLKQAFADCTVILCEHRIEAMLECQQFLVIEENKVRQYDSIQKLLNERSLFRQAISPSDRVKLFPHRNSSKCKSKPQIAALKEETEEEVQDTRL

| EC50 [nM] | Emax [%] | SMILES |
| --- | --- | --- |
| 1120 |  | Cc1ccc(F)cc1-c1nc(NS(=O)(=O)c2cccc(N(C)CC3(C(=O)O)CCC3)n2)ccc1C(F)(F)F [Compound 139, 1-(((6-(N-(6-(5-fluoro-2-methylphenyl)-5-(trifluoromethyl)pyridin-2-yl)sulfamoyl)pyridin-2-yl)(methyl)amino)methyl)cyclobutane-1-carboxylic Acid] |
| 1830 |  | CCN(CCC(=O)O)c1cccc(S(=O)(=O)Nc2ccc(C(F)(F)F)c(-c3c(C)cccc3C)n2)n1 [Compound 145, 3-((6-(N-(6-(2,6-dimethylphenyl)-5-(trifluoromethyl)pyridin-2-yl)sulfamoyl)pyridin-2-yl)(ethyl)amino)propanoic Acid] |
| 1390 | 330 | CCc1ccccc1-c1nc(NS(=O)(=O)c2cccc(OC3CCC(C(=O)O)CC3)n2)ccc1C(F)(F)F (stereo not drawn) [Compound 120, 4-((6-(N-(6-(2-ethylphenyl)-5-(trifluoromethyl)pyridin-2-yl)sulfamoyl)pyridin-2-yl)nxy)cyclohexane-1-carboxylic Acid] |
| 1150 | 802 | Cc1ccccc1-c1nc(NS(=O)(=O)c2cccc(N(CCC(=O)O)C3CCC3)n2)ccc1C(F)(F)F [Compound 147, 3-(cyclobutyl(6-(N-(6-(o-tolyl)-5-(trifluoromethyl)pyridin-2-yl)sulfamoyl)pyridin-2-yl)amino)propanoic acid] |
| 1460 |  | C=Cc1ccccc1-c1nc(NS(=O)(=O)c2cccc(N3CCCC(CCCC(=O)O)C3)n2)ccc1C(F)(F)F (stereo not drawn) [Compound 76, 4-(1-(6-(N-(5-(trifluoromethyl)-6-(2-vinylphenyl)pyridin-2-yl)sulfamoyl)pyridin-2-yl)piperidin-3-yl)butanoic Acid] |
| 1760 |  | Cc1ccc(F)cc1-c1nc(NS(=O)(=O)c2cccc(N(CCC(=O)O)CC3CC3)n2)ccc1C(F)(F)F [Compound 69, 3-((cyclopropylmethyl)(6-(N-(6-(5-fluoro-2-methylphenyl)-5-(trifluoromethyl)pyridin-2-yl)sulfamoyl)pyridin-2-yl)amino)propanoic Acid] |
| 2040 |  | Cc1ccccc1-c1nc(NS(=O)(=O)c2cccc(N3CCCC(CC(=O)O)C3)n2)ccc1C(F)(F)F (stereo not drawn) [Compound 88, 2-(1-(6-(N-(6-(o-tolyl)-5-(trifluoromethyl)pyridin-2-yl)sulfamoyl)pyridin-2-yl)piperidin-3-yl)acetic Acid] |
| 1060 | 485 | CCc1ccccc1-c1nc(NS(=O)(=O)c2cccc(N3CCC(C)(CC(=O)O)CC3)n2)ccc1C(F)(F)F [Compound 22, 2-(1-(6-(N-(6-(2-ethylphenyl)-5-(trifluoromethyl)pyridin-2-yl)sulfamoyl)pyridin-2-yl)-4-methylpiperidin-4-yl)acetic Acid] |
| 1770 | 715 | CCc1ccc(F)cc1-c1nc(NS(=O)(=O)c2cccc(N(CCC(=O)O)C3CC3)n2)ccc1C(F)(F)F [Compound 113, 3-(cyclopropyl(6-(N-(6-(2-ethyl-5-fluorophenyl)-5-(trifluoromethyl)pyridin-2-yl)sulfamoyl)pyridin-2-yl)amino)propanoic Acid] |
| 930 | 686 | Cc1ccccc1-c1nc(NS(=O)(=O)c2cccc(N(CCCC(=O)O)CC(C)C)n2)ccc1Cl [Compound 154, 4-((6-(N-(5-chloro-6-(o-tolyl)pyridin-2-yl)sulfamoyl)pyridin-2-yl)(isobutyl)amino)butanoic Acid] |
| 1210 |  | CCc1ccc(F)cc1-c1nc(NS(=O)(=O)c2cccc(N(CCC(=O)O)CC3CC3)n2)ccc1C(F)(F)F [Compound 116, 3-((cyclopropylmethyl)(6-(N-(6-(2-ethyl-5-fluorophenyl)-5-(trifluoromethyl)pyridin-2-yl)sulfamoyl)pyridin-2-yl)amino)propanoic Acid] |
| 1670 |  | Cc1ccccc1-c1nc(NS(=O)(=O)c2cccc(N(CCC(=O)O)CCC(F)(F)F)n2)ccc1C(F)(F)F [Compound 150, 3-((6-(N-(6-(o-tolyl)-5-(trifluoromethyl)pyridin-2-yl)sulfamoyl)pyridin-2-yl)(3,3,3-trifluoropropyl)amino)propanoic Acid] |
| 2960 | 222 | Cc1ccccc1-c1nc(NS(=O)(=O)c2cccc(NCCCC(=O)O)n2)ccc1C(F)(F)F [Compound 36, 4-((6-(N-(6-(o-tolyl)-5-(trifluoromethyl)pyridin-2-yl)sulfamoyl)pyridin-2-yl)amino)butanoic Acid] |
| 1880 | 363 | Cc1ccccc1-c1nc(NS(=O)(=O)c2cccc(N3CCC(C)(CC(=O)O)CC3)n2)ccc1C(F)(F)F [Compound 7, 2-(4-methyl-1-(6-(N-(6-(o-tolyl)-5-(trifluoromethyl)pyridin-2-yl)sulfamoyl)pyridin-2-yl)piperidin-4-yl)acetic Acid] |
| 1540 |  | CCc1ccccc1-c1nc(NS(=O)(=O)c2cccc(N3CCC[C@H](CC(=O)O)C3)n2)ccc1C(F)(F)F [Compound 84, (R)-2-(1-(6-(N-(6-(2-ethylphenyl)-5-(trifluoromethyl)pyridin-2-yl)sulfamoyl)pyridin-2-yl)piperidin-3-yl)acetic Acid] |
| 1850 | 271 | Cc1ccccc1-c1nc(NS(=O)(=O)c2cccc(NCC(C)(C)C(=O)O)n2)ccc1C(F)(F)F [Compound 8, 2,2-dimethyl-3-((6-(N-(6-(o-tolyl)-5-(trifluoromethyl)pyridin-2-yl)sulfamoyl)pyridin-2-yl)amino)propanoic Acid] |
| 2300 | 608 | Cc1ccccc1-c1nc(NS(=O)(=O)c2cccc(NCC3(C(=O)O)CCC3)n2)ccc1C(F)(F)F [Compound 12, 1-(((6-(N-(6-(o-tolyl)-5-(trifluoromethyl)pyridin-2-yl)sulfamoyl)pyridin-2-yl)amino)methyl)cyclobutane-1-carboxylic Acid] |
| 830 | 829 | CC1(CC(=O)O)CCN(c2cccc(S(=O)(=O)Nc3ccc(C(F)(F)F)c(-c4ccccc4C(C)(C)C)n3)n2)CC1 [Compound 26, 2-(1-(6-(N-(6-(2-(tert-butyl)phenyl)-5-(trifluoromethyl)pyridin-2-yl)sulfamoyl)pyridin-2-yl)-4-methylpiperidin-4-yl)acetic Acid] |
| 1970 |  | C=Cc1ccccc1-c1nc(NS(=O)(=O)c2cccc(N3CCC[C@H](CC(=O)O)C3)n2)ccc1C(F)(F)F [Compound 57, (R)-2-(1-(6-(N-(5-(trifluoromethyl)-6-(2-vinylphenyl)pyridin-2-yl)sulfamoyl)pyridin-2-yl)piperidin-3-yl)acetic Acid] |
| 1000 | 780 | CC(C)c1ccccc1-c1nc(NS(=O)(=O)c2cccc(N3CCC(C)(CC(=O)O)CC3)n2)ccc1C(F)(F)F [Compound 25, 2-(1-(6-(N-(6-(2-isopropylphenyl)-5-(trifluoromethyl)pyridin-2-yl)sulfamoyl)pyridin-2-yl)-4-methylpiperidin-4-yl)acetic Acid] |
| 1300 | 969 | CC1(C(=O)O)CCCN(c2cccc(S(=O)(=O)Nc3ccc(Cl)c(-c4ccccc4-c4ccccc4)n3)n2)C1 (stereo not drawn) [Compound 29, 1-(6-(N-(6-([1,1′-biphenyl]-2-yl)-5-chloropyridin-2-yl)sulfamoyl)pyridin-2-yl)-3-methylpiperidine-3-carboxylic Acid] |
